# Values joined by “and” are separate entries in the source; they are usually repeats but may differ in a detail not shown here. Equal entries are not always repeated.
# Columns and labels:
# [1] = tested on: A/Solomon Islands/03/2006 (H1N1); format: cell-based, influenza A virus
# [2] = tested on: A/Hawaii/15/2001 (H1N1); format: cell-based, influenza A virus
# [3] = tested on: A/California/07/2009 (H1N1); format: cell-based, influenza A virus
# [4] = tested on: A/Minnesota/19/2011 (H1N1); format: cell-based, influenza A virus
# [5] = tested on: A/New Jersey/8/1976 (H1N1); format: cell-based, influenza A virus
# [6] = tested on: A/USSR/90/1977 (H1N1); format: cell-based, influenza A virus
# [7] = tested on: A/Puerto Rico/8/1934 (H1N1); format: cell-based, influenza A virus
# [8] = tested on: A/New Caledonia/20/1999 (H1N1); format: cell-based, influenza A virus
# [9] = tested on: A/Indiana/08/2011 (H3N2); format: cell-based, influenza A virus
# [10] = tested on: A/California/02/2014 (H3N2); format: cell-based, influenza A virus
# [11] = tested on: A/Texas/71/2007 (H3N2); format: cell-based, influenza A virus
# [12] = tested on: A/Perth/16/2009 (H3N2); format: cell-based, influenza A virus
# [13] = tested on: A/Fujian/413/2002 (H3N2); format: cell-based, influenza A virus
# [14] = tested on: A/Alaska/140/2015 (H3N2); format: cell-based, influenza A virus
# [15] = tested on: A/Hong Kong/156/1997 (H5N1); format: cell-based, influenza A virus
# [16] = tested on: A/Egypt/N6658/2011 (H5N1); format: cell-based, influenza A virus
# [17] = tested on: A/Vietnam/1203/2004 (H5N1); format: cell-based, influenza A virus
# [18] = tested on: A/Indonesia/05/2005 (H5N1); format: cell-based, influenza A virus
# [19] = tested on: A/Anhui/1/2013 (H7N9); format: cell-based, influenza A virus
# [20] = tested on: panel of 20 influenza A viruses; format: cell-based, influenza A virus
# [21] = tested on: NL4-3 WT HIV-1 virus; assay: Infectious HIV-1 released by infected MT-2 cells (TZM-bl luciferase reporter); format: cell-based; details: 10 nM, 48 hours
# [22] = tested on: MT-2 human T cell line; assay: Cytotoxicity against uninfected MT-2 cells; format: cell-based; details: 1 µM, 48 hours
# [23] = tested on: Nipah virus (Malaysian strain); assay: microbe, parasite or virus in culture; format: cell-based
# [24] = tested on: A549 human lung carcinoma cells; details: human
# [25] = in vitro; details: human, % Dif (absorbance as percent relative to the vehicle control, relative viability)
# [26] = in vitro; details: human
# [27] = tested on: relapsed/refractory, locally advanced or metastatic solid tumors; details: preliminary clinical results, cited from earlier work
structure (smiles),measurement,setting,value
"CC1=C(COCCC(C)(C)C)C(=O)N(Nc2ccc(C(F)(F)F)c(Cl)n2)C1=O [felezonexor, 3-[(3,3-dimethylbutoxy)methyl]-1-{[6-chloro-5-(trifluoromethyl) (2-pyridyl)]amino}-4-methylazoline-2,5-dione]",Virus titer AVG,[1],6.00 log10TCID50/mL and 7.17 log10TCID50/mL and 7.79 log10TCID50/mL
same,"Virus titer, replicates 1-3",[1],6.50 log10TCID50/mL and 6.75 log10TCID50/mL and 7.38 log10TCID50/mL and 5.75 log10TCID50/mL (2×) and 7.50 log10TCID50/mL (2×) and 8.50 log10TCID50/mL and 7.25 log10TCID50/mL
same,Virus titer AVG,[2],2.67 log10TCID50/mL and 3.67 log10TCID50/mL and 4.83 log10TCID50/mL
same,"Virus titer, replicates 1-3",[2],2.50 log10TCID50/mL and 3.75 log10TCID50/mL (2×) and 4.75 log10TCID50/mL (2×) and 2.75 log10TCID50/mL (2×) and 3.50 log10TCID50/mL and 5.00 log10TCID50/mL
same,Virus titer AVG,[3],2.75 log10TCID50/mL and 4.42 log10TCID50/mL and 5.42 log10TCID50/mL
same,"Virus titer, replicates 1-3",[3],3.25 log10TCID50/mL and 4.25 log10TCID50/mL and 5.50 log10TCID50/mL and 2.50 log10TCID50/mL (2×) and 4.50 log10TCID50/mL (2×) and 5.75 log10TCID50/mL and 5.00 log10TCID50/mL
same,reduction in viral titers,[3],greater than 1.0 log10TCID50/mL
same,"Virus titer, replicates 1-3",[4],2.50 log10TCID50/mL and 6.75 log10TCID50/mL (2×) and 7.25 log10TCID50/mL (2×) and 3.25 log10TCID50/mL and 8.50 log10TCID50/mL and 2.75 log10TCID50/mL and 9.25 log10TCID50/mL
same,reduction in viral titers,[4],greater than 1.0 log10TCID50/mL
same,Virus titer AVG,[5],3.67 log10TCID50/mL and 4.00 log10TCID50/mL and 4.17 log10TCID50/mL
same,"Virus titer, replicates 1-3",[5],3.75 log10TCID50/mL (3×) and 3.50 log10TCID50/mL (2×) and 4.25 log10TCID50/mL (3×) and 4.50 log10TCID50/mL
same,reduction in viral titers,[5],greater than 1.0 log10TCID50/mL
same,"Virus titer, replicates 1-3",[6],1.50 log10TCID50/mL (3×) and 5.25 log10TCID50/mL and 5.75 log10TCID50/mL (3×) and 4.25 log10TCID50/mL (2×)
same,reduction in viral titers,[6],greater than 1.0 log10TCID50/mL
same,Virus titer AVG,[7],3.42 log10TCID50/mL and 4.92 log10TCID50/mL
same,"Virus titer, replicates 1-3",[7],3.50 log10TCID50/mL (2×) and 3.25 log10TCID50/mL (3×) and 4.75 log10TCID50/mL and 4.50 log10TCID50/mL and 3.75 log10TCID50/mL and 5.50 log10TCID50/mL
same,reduction in viral titers,[7],greater than 1.0 log10TCID50/mL
same,Virus titer AVG,[8],7.17 log10TCID50/mL and 6.83 log10TCID50/mL and 7.00 log10TCID50/mL
same,"Virus titer, replicates 1-3",[8],6.75 log10TCID50/mL (2×) and 7.25 log10TCID50/mL (2×) and 8.00 log10TCID50/mL and 6.50 log10TCID50/mL (3×) and 7.50 log10TCID50/mL
same,reduction in viral titers,[8],no reduction in viral titers
same,"Virus titer, replicates 1-3",[9],3.25 log10TCID50/mL (2×) and 5.50 log10TCID50/mL (2×) and 6.75 log10TCID50/mL and 6.50 log10TCID50/mL and 7.50 log10TCID50/mL and 2.75 log10TCID50/mL and 8.50 log10TCID50/mL
same,reduction in viral titers,[9],greater than 1.0 log10TCID50/mL
same,"Virus titer, replicates 1-3",[10],1.50 log10TCID50/mL (3×) and 5.25 log10TCID50/mL and 6.50 log10TCID50/mL (2×) and 4.75 log10TCID50/mL and 7.75 log10TCID50/mL and 4.50 log10TCID50/mL
same,reduction in viral titers,[10],greater than 1.0 log10TCID50/mL
same,Virus titer AVG,[11],2.50 log10TCID50/mL and 3.33 log10TCID50/mL and 3.92 log10TCID50/mL
same,"Virus titer, replicates 1-3",[11],3.25 log10TCID50/mL (2×) and 4.00 log10TCID50/mL and 3.75 log10TCID50/mL (2×) and 2.75 log10TCID50/mL (2×) and 1.50 log10TCID50/mL and 4.25 log10TCID50/mL
same,reduction in viral titers,[11],greater than 1.0 log10TCID50/mL
same,"Virus titer, replicates 1-3",[12],2.25 log10TCID50/mL and 3.50 log10TCID50/mL (2×) and 4.75 log10TCID50/mL and 1.50 log10TCID50/mL and 4.25 log10TCID50/mL (2×) and 2.50 log10TCID50/mL and 3.25 log10TCID50/mL
same,Virus titer AVG,[13],3.25 log10TCID50/mL and 3.50 log10TCID50/mL
same,"Virus titer, replicates 1-3",[13],3.00 log10TCID50/mL and 3.25 log10TCID50/mL (3×) and 3.50 log10TCID50/mL (2×) and 3.75 log10TCID50/mL (2×) and 2.75 log10TCID50/mL
same,reduction in viral titers,[13],no reduction in viral titers
same,"Virus titer, replicates 1-3",[14],1.50 log10TCID50/mL (4×) and 6.50 log10TCID50/mL and 2.50 log10TCID50/mL and 7.00 log10TCID50/mL and 2.25 log10TCID50/mL and 6.25 log10TCID50/mL
same,reduction in viral titers,[14],greater than 1.0 log10TCID50/mL
same,Virus titer AVG,[15],2.42 log10TCID50/mL and 3.58 log10TCID50/mL and 4.50 log10TCID50/mL
same,"Virus titer, replicates 1-3",[15],2.25 log10TCID50/mL (2×) and 3.50 log10TCID50/mL (2×) and 4.25 log10TCID50/mL and 2.75 log10TCID50/mL and 4.75 log10TCID50/mL and 3.75 log10TCID50/mL and 4.50 log10TCID50/mL
same,reduction in viral titers,[15],greater than 1.0 log10TCID50/mL
same,Virus titer AVG,[16],4.08 log10TCID50/mL and 4.33 log10TCID50/mL and 4.92 log10TCID50/mL
same,"Virus titer, replicates 1-3",[16],4.00 log10TCID50/mL and 4.25 log10TCID50/mL (2×) and 5.50 log10TCID50/mL and 4.50 log10TCID50/mL (3×) and 3.75 log10TCID50/mL and 4.75 log10TCID50/mL
same,reduction in viral titers,[16],greater than 1.0 log10TCID50/mL
same,Virus titer AVG,[17],6.58 log10TCID50/mL and 8.50 log10TCID50/mL and 8.17 log10TCID50/mL
same,"Virus titer, replicates 1-3",[17],6.50 log10TCID50/mL (2×) and 8.25 log10TCID50/mL (2×) and 8.50 log10TCID50/mL and 6.75 log10TCID50/mL and 7.75 log10TCID50/mL (2×) and 9.50 log10TCID50/mL
same,reduction in viral titers,[17],greater than 1.0 log10TCID50/mL
same,Virus titer AVG,[18],4.83 log10TCID50/mL and 6.92 log10TCID50/mL and 7.58 log10TCID50/mL
same,"Virus titer, replicates 1-3",[18],4.50 log10TCID50/mL and 6.50 log10TCID50/mL and 7.50 log10TCID50/mL (3×) and 5.25 log10TCID50/mL and 6.75 log10TCID50/mL and 4.75 log10TCID50/mL and 7.75 log10TCID50/mL
same,reduction in viral titers,[18],greater than 1.0 log10TCID50/mL
same,Virus titer AVG,[19],1.50 log10TCID50/mL and 2.50 log10TCID50/mL and 2.67 log10TCID50/mL
same,"Virus titer, replicates 1-3",[19],1.50 log10TCID50/mL (3×) and 2.25 log10TCID50/mL and 2.75 log10TCID50/mL (3×) and 2.50 log10TCID50/mL (2×)
same,reduction in viral titers,[19],greater than 1.0 log10TCID50/mL
same,strains with viral titers reduced at least 3-fold compared to untreated controls,[20],17 out of 20 strains
same,strains with viral titers reduced at least 10-fold compared to untreated controls,[20],13 out of 20 strains
same,reduction of the production of infectious virus,[21],more than 50%
same,MT-2 cells killed,[22],about 50%
same,"selectivity index (SI, CC50/EC50)",[23],12
same,EC50,"[23]; Henipavirus nipahense, HeLa, 48 h, read-out: EC50 (compound concentration that reduces viral replication by 50%)",0.02 µM
same,tolerated concentration (relative viability equivalent or greater than untreated controls),[24],up to 100 nM
same,"% Dif (absorbance as percent relative to the vehicle control, relative viability)",[24]; 0.5 µM,71.6%
same,viability at 0.05 µM,[25],101%
same,viability at 0.1 µM,[25],125%
same,viability at 0.25 µM,[25],66.2%
same,viability at 0.5 µM,[25],71.6%
same,viability at 1 µM,[25],58.7%
same,CC50,[26],0.24 µM
same,Safety and tolerability,[27]; 57 patients with solid tumors,manageable
same,most common treatment related adverse events,[27]; 57 patients with solid tumors,"gastrointestinal (nausea, vomiting, and diarrhea) and constitutional (fatigue, decreased appetite)"
same,antitumor activity,"[27]; 57 patients, heavily pre-treated solid tumors","durable responses, including a partial response"
